One test has as its target T1, KCC4 (Homo sapiens, UniProt Q9Y666).
T1 construct: expressed in transfected cells; host or cells: HEK-293
T1 sequence (Q9Y666 1-1083): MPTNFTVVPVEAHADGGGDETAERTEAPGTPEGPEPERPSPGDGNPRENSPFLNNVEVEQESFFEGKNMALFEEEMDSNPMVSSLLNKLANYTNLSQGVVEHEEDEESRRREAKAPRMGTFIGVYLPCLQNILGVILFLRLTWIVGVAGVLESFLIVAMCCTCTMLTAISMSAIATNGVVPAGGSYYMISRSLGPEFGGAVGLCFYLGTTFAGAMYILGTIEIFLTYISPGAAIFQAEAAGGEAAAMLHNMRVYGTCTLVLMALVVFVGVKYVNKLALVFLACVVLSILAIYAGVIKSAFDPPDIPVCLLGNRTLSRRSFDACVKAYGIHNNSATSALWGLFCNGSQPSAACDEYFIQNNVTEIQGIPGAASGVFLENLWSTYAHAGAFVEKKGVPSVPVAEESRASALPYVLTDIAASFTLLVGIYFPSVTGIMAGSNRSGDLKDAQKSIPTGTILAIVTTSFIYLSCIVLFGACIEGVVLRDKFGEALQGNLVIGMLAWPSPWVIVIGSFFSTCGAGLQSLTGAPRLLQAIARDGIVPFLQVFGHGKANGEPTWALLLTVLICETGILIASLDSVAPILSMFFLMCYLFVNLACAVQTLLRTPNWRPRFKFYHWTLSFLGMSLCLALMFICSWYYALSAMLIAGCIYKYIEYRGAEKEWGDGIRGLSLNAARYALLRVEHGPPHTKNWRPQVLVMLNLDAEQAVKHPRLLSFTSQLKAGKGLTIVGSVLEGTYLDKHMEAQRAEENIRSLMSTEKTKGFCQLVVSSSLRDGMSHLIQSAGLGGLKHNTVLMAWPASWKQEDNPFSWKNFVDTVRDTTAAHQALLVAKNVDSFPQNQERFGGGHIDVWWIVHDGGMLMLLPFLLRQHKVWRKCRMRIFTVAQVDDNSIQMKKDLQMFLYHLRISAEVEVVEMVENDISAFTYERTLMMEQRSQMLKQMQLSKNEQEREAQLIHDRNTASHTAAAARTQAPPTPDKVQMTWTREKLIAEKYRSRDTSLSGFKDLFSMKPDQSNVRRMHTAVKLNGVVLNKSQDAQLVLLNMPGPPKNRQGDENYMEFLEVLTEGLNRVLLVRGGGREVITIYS
Briefly: Tl+ flux assay in HEK-293 cells expressing KCC4. Type of test: cell-based. The conditions noted are these: read-out: concentration at which effects on KCC4 were seen (EC50 chart, FIG. 1G). The method, then: (§1) FLIPR TI Flux assay. HEK-293 cells were washed with HBSS, and then incubated with loading buffer containing TI sensitive fluorescent dye (https://www.moleculardevices.com), 20 μM bumetanide 20 μM ouabain and 2.5 mM probenecid for 1 h at room temperature (RT) under control conditions or with drugs in the dark using a FlexStation 3 microplate reader (Molecular Devices) and imaged […] for 30 min. Stimulus buffer was added containing 5 mM K^+/0.5 mM Tl^+ and cells were imaged every 1.5 over a 190 second time course The initial rate Tl^+ uptake (Relative Fluorescence Units (RFU) per second) was determined following addition of the stimulus buffer as outlined previously (Conway et al., 2017, supra) (Lee et al., 2022, supra).
(§2) Several studies have shown that the activity and plasma membrane accumulation of KCC2 is potentiated via phosphorylation of S940, a process mediated by the activity of protein kinase C and protein phosphatase 1 (Lee et al., 2011, supra; Lee et al., J Biol Chem 282, 29777-29784 (2007); Moore et al., Proc. Natl. Acad. Sci. U.S.A 115, 10166-10171 (2018); Moore et al., Trends Neurosci. 40, 555-571 (2017); Silayeva et al., Proc. Natl. Acad. Sci. U.S.A 112, 3523-3528 (2015)). […] Compared to KCC2, effects on KCC3, KCC4, and NKCC1 were only seen at concentrations more than 35-fold that of KCC2 (≥100 μM) (FIG. 1G).

Another test concerns the target T2, NKCC1 (Homo sapiens, UniProt P55011).
T2 construct: expressed in transfected cells; host or cells: HEK-293
T2 sequence (P55011 1-1212): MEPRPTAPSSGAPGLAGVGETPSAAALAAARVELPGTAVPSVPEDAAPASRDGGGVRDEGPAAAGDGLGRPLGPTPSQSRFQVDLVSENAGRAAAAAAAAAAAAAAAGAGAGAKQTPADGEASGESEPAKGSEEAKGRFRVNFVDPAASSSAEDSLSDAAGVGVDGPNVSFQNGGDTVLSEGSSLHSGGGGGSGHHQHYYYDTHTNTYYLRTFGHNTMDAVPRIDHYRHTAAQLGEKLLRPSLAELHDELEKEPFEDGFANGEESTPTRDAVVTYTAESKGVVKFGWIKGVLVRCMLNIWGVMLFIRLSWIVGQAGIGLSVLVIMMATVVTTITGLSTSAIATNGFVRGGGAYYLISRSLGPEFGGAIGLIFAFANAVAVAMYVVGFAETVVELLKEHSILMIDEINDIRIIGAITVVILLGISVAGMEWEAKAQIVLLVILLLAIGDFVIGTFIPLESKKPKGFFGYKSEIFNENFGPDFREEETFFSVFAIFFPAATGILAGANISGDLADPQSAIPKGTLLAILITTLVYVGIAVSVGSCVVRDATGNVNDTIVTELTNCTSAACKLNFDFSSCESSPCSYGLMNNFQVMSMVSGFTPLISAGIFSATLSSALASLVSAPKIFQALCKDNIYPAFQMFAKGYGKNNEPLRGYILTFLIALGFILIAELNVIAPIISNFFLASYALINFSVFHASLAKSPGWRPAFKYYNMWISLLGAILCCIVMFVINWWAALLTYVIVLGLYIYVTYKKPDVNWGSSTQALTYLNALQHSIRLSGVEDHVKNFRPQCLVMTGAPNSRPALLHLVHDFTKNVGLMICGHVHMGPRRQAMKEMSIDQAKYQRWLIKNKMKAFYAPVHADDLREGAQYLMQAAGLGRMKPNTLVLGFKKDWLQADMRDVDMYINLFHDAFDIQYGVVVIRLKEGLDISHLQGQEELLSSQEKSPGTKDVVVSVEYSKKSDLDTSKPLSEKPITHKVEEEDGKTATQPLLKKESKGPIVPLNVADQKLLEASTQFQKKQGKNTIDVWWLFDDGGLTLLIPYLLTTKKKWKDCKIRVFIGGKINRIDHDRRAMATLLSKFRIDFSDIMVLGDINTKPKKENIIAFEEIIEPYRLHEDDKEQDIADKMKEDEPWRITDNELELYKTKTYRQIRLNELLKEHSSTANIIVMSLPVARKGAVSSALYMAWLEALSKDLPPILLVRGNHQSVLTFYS
The test is described as follows: Tl+ flux assay in HEK-293 cells expressing NKCC1. The conditions noted are these: read-out: concentration at which effects on NKCC1 were seen (EC50 chart, FIG. 1G). Type of test: cell-based. As for the experimental part: as §1, §2

As for `C[C@@H]1CN(c2nc3c(c(Nc4ccc(C5CCCCC5)cc4)n2)COC3)CCO1` [Compound A, (R)—N-(4-cyclohexylphenyl)-2-(2-methylmorpholino)-5,7-dihydrofuro[3,4-d]pyrimidin-4-amine], the EC50 at KCC4 and on NKCC1 was ≥ 100 µM throughout.
